Test results published in patent US9475789B2, “Use of polyenylpyrrole derivatives for treating inflammation” (WELLHEAD BIOLOGICAL TECHNOLOGY CORP., priority 2014, dated 2016).

Columns and labels:
[1] = system: ROS; test: Intracellular ROS production, LPS-activated RAW 264.7 macrophages; format: cell-based, murine; settings: compound 1h 20 μM, NAC 10 mM, 30 min before LPS
Experimental: In (A), RAW 264.7 macrophages (5×10^5/ml) were incubated with compound 1h (20 μM), N-acetyl cysteine (NAC; 10 mM) or DMSO (vehicle) for 30 min followed by LPS (1 μg/ml) stimulating for the indicated time, then ROS levels were measured by detection of the fluorescence intensity of the fluorophore carboxyl-DCF and expressed relative to those at time zero. In (B), RAW 264.7 macrophages (5×10^5/ml) were incubated with compound 1h (20 μM) or DMSO for 30 min followed by LPS (1 μg/ml) stimulating for 0-60 min, then the phosphorylation levels of ERK1/2, JNK1/2, p38 were analyzed by Western blot. In (C), J774A.1 macrophages (5×10^5/ml) were incubated with compound 1h or DMSO for 30 min followed by LPS (1 μg/ml) stimulating for 20 min, then the phosphorylation levels of ERK1/2, JNK1/2, p38 were analyzed by Western blot.
Intracellular ROS stimulated by LPS was measured by detecting the fluorescence intensity of the 2′,7′-dichlorofluorescein diacetate (H2DCFDA) oxidized product (DCF) (Molecular Probes, Eugene, Oreg.). […] The relative fluorescence intensity of fluorophore DCF, formed by peroxide oxidation of the non-fluorescent precursor, was detected at an excitation wavelength of 485 nm and an emission wavelength of 530 nm with a microplate absorbance reader (Bio-Rad Laboratories, Inc).

[2] = system: NF-κB p65; test: NF-κB p65 nuclear translocation ELISA, J774A.1 macrophages; format: cell-based, murine; settings: compound 1h 10-40 μM, LPS 20 min
Experimental: (A) RAW 264.7 macrophages (5×10^5/ml) or (B) J774A.1 macrophages (5×10^5/ml) were incubated with compound 1h or DMSO for 30 min followed by LPS (1 μg/ml) stimulating for 20 min, then the phosphorylation levels of IKK-α and IκB-α and total IκB-α protein level were analyzed by Western blot. (C) RAW 264.7 macrophages (5×10^5/ml) or (D) J774A.1 macrophages (5×10^5/ml) were incubated with compound 1h (10-40 μM) or DMSO for 30 min followed by LPS (1 μg/ml) stimulating for 20 min, then the nuclear translocation of NF-κB were analyzed by ELISA. (E) RAW-Blue™ cells (5×10^5/ml) were incubated with compound 1h (2.5-40 μM) or DMSO for 30 min followed by LPS (1 μg/ml) stimulating for 24 h, then the SEAP activity was measured by QUANTI-Blue™. […] In (C), (D), and (E), the data are expressed as the mean±SD for three separate experiments. *, **, and *** indicate a significant difference at the level of p<0.05, p<0.01, and p<0.001 respectively compared to LPS group.
Nuclear protein from RAW 264.7 and J774A.1 cells were extracted using a Nuclear Extract Kit (Active Motif) according to the manufacturer's instructions and nuclear NF-κB p65 activation quantified using an ELISA-based TransAM NF-κB kit (Active Motif, Tokyo, Japan) according to the manufacturer's protocol by reading the absorbance with a microplate absorbance reader (Bio-Rad Laboratories, Inc) at 450 nm with a reference wavelength of 655 nm.

[3] = system: IL-6; test: IL-6 ELISA, LPS-activated JAWSII dendritic cells; format: cell-based, murine; settings: LPS 1 μg/ml 24 h
Experimental: (A) J774A.1 macrophages (4×10^5/ml), (B) peritoneal macrophages (4×10^5/ml), and (C) JAWSII dendritic cells (4×10^5/ml) were incubated with compound 1h or DMSO for 30 min followed by stimulating with LPS (1 μg/ml) for 24 h, then IL-6 and TNF-α concentration in culture medium were assayed by ELISA. The data are expressed as the mean±SD for three separate experiments. *, **, and *** indicate a significant difference at the level of p<0.05, p<0.01, p<0.001 respectively compared to LPS group.
The effects of tested samples on IL-1β, TNF-α and IL-6 production were measured by ELISA according to the manufacturer's instruction. In brief, 50 μl of biotinylated antibody reagent and 50 μl of supernatant were added to an anti-mouse IL-1β, TNF-α and IL-6 precoated stripwell plate, and incubated at room temperature for 2 h. After washing the plate three times with washing buffer, 100 μl of diluted streptavidin-HRP concentrate was added to each well and incubated at room temperature for 30 min. The washing process was repeated; then 100 μl of a premixed tetramethylbenzidine substrate solution was added to each well and developed at room temperature in the dark for 30 min. Following the addition of 100 μl of stop solution to each well to stop the reaction, the absorbance of the plate was measured by a microplate reader at 450 nm wavelength.

[4] = system: caspase-1; test: Western blot of active caspase-1 (p10), LPS+ATP-activated J774A.1 macrophages; format: cell-based, mouse
Experimental: (A) J774A.1 macrophages (1×10^6/ml) and (B) peritoneal macrophages (1×10^5/ml) were incubated with compound 1h for 30 min followed by LPS (1 μg/ml) stimulating for 5.5 h, then the cells were stimulated with ATP (5 mM) for an additional 30 min. The IL-1β in the culture medium was measured by ELISA and the expression of active caspase-1 (p10) was measured by Western blot. In (C) and (D), J774A.1 macrophages (1×10^6/ml) were incubated with LPS (1 μg/ml) for 5.5 h, then cells were incubated with compound 1h for 30 min followed by stimulating with ATP (5 mM) for an additional 30 min. The IL-1β and IL-6 in the culture medium were measured by ELISA and the expression of active caspase-1 (p10) was measured by Western blot. In (E), J774A.1 macrophages (1×10^6/ml) were incubated with compound 1h for 30 min followed by LPS (1 μg/ml) stimulating for 6 h. The expression of NLRP3 and proIL-1β were measured by Western blot.
Whole cell lysates were separated by SDS-PAGE and electrotransferred to a PVDF membrane. The membranes were incubated in blocking solution—5% nonfat milk in phosphate buffered saline with 0.1% Tween 20—at room temperature for 1 h. Each membrane was incubated with a specific primary antibody at room temperature for 2 h. After washing three times in PBS with 0.1% Tween 20, the membrane was incubated with an HRP-conjugated secondary antibody directed against the primary antibody. […]

Q: Which “LPS-stimulated ROS production” value [1] does the source give for `O=c1cc(O)cc(/C=C/C=C/C=C/C=C/c2[nH]ccc2Cl)o1` [Compound 1h] here?
A: able to reduce LPS-stimulated ROS production

Q: And the NF-κB nuclear translocation [2]?
A: inhibited NF-κB nuclear translocation

Q: What about the “secretion of IL-6” value [3] of the same compound?
A: also reduced

Q: And the caspase-1 activation ([4]; J774A.1, compound before LPS and ATP treatment)?
A: significantly inhibited

Q: And the caspase-1 activation ([4]; LPS-primed J774A.1, compound 30 min before ATP stimulation)?
A: not caspase-1 activation
